In patent publication US20200270588A1, “GLUCOSYL TRANSFERASE POLYPEPTIDES AND METHODS OF USE” (Syngenta Participations AG, priority 2017, published 2020):
Several values for one entry are separate records, joined by “and”; a condition that tells them apart may be missing. Identical values can stand only once.

How the values were obtained:
Assay type in all cases: in vivo
[1] = test system: transgenic tobacco plants expressing SEQ ID NO: 16; experiment: Glass house spray test on tobacco, percent damage; settings: for tolerance compared with w/t and SEQ ID NO: 1 plants: 200 and 500 g/ha, 14 DAT, several events
Source text: (§1) Three transgenic populations of about forty tobacco plants and comprising, a glucosyl transferase gene encoding either zmBX8 (SEQ ID NO 2) or zmBX9 (SEQ ID NO 1) were thus produced. A sub-set of about 30 plants were selected on the basis of similar size from each population for spray testing. The plants were then sprayed with 30 g/ha of Compound VI. VI was mixed in water with 0.2-0.25% X-77 surfactant and sprayed from a boom on a suitable track sprayer moving at 2 mph with the nozzle about 2 inches from the plant tops. Spray volume was 200 l/ha. Plants were assessed for damage and scored at 7 and 14 days after treatment (DAT).
In a further example, Zea mays BX8 or BX9 or orthologues of BX8/9, are altered to carry amino acid variants at various positions which increase tolerance to the alcohol and aminal PSII herbicides as described in the example above. DNA sequences that encode these polypeptides (optimized for tobacco or, optionally, codon optimized according to a target crop such as soybean) were prepared for tobacco transformation as described in example 10. […] Transgenic tobacco populations expressing SEQ ID NOs 16 and 17 were generated alongside a population expressing the parental zmBX9 sequence (SEQ ID 1). […] Plants were assessed for damage and scored at 14 days after treatment (DAT). The results are depicted in Table 19 and also in FIG. 6.

[2] = test system: transgenic tobacco plants expressing SEQ ID NO: 17; experiment: Glass house spray test on tobacco, percent damage; settings: for tolerance compared with w/t and SEQ ID NO: 1 plants: 200 and 500 g/ha, 14 DAT, several events
Source text: as §1
In a further example, Zea mays BX8 or BX9 or orthologues of BX8/9, are altered to carry amino acid variants at various positions which increase tolerance to the alcohol and aminal PSII herbicides as described in the example above. DNA sequences that encode these polypeptides (optimized for tobacco or, optionally, codon optimized according to a target crop such as soybean) were prepared for tobacco transformation as described in example 10. […] Transgenic tobacco populations expressing SEQ ID NOs 16 and 17 were generated alongside a population expressing the parental zmBX9 sequence (SEQ ID 1). These populations were sprayed with herbicide V and VI at rates of 200 and 500 g/ha. Plants were assessed for damage and scored at 14 days after treatment (DAT). The results are depicted in Table 19 and also in FIG. 6.

[3] = test system: transgenic tobacco plants expressing zmBX9 (SEQ ID No 1); experiment: Glass house spray test on tobacco, percent damage; settings: for percent damage: 14 DAT, tobacco expressing SEQ ID NO 1, lines 6266 and 6291, clonal plants A-E
Procedure: (§2) In the present example, Zea mays BX8 or BX9 or orthologues of BX8/9, for example SEQ ID Nos. 1-59 and various herbicide-active mutations and combinations of mutations thereof (e.g. as listed in Tables 1-9) are expressed in transgenic tobacco. DNA sequences that encode these polypeptides (optimized for tobacco or, optionally, codon optimized according to a target crop such as soybean) are prepared synthetically and obtained commercially from Genewiz (South Plainfield, USA). Each sequence is designed to include a 5′ fusion with TMV omega 5′ leader (SEQ ID NO: 109). The DNA sequences are flanked at the 5′ end with XhoI and at the 3′ end with KpnI to facilitate direct cloning into a suitable binary vector for Agrobacterium-based plant transformation.
In a particular example, the expression cassette, comprising the TMV omega 5′ leader and a BX encoding gene of interest is excised using XhoI/KpnI and cloned into similarly digested pBIN 19 (Bevan, Nucl. Acids Res. (1984) behind a double enhanced 35S promoter (SEQ ID NO:110) and ahead of a NOS 3′ transcription terminator (SEQ ID NO:111) and then transformed into E. coli DH5 alpha competent cells (see FIG. 5). DNA recovered from the E. coli is used to transform Agrobacterium tumefaciens LBA4404, and the transformed bacteria are selected on media contain rifampicin and kanamycin. Tobacco tissue is subjected to Agrobacterium-mediated transformation using methods well described in the art or as described herein. For example, a master plate of Agrobacterium tumefaciens containing the BX glucosyltransferase expressing binary vector is used to inoculate 10 ml LB (L broth) containing 100 mg/l Rifampicin plus 50 mg/l Kanamycin using a single bacterial colony. This is incubated overnight at 28° C. shaking at 200 rpm. This entire overnight culture is used to inoculate a 50 ml volume of LB containing the same antibiotics. Again this is cultured overnight at 28° C. shaking at 200 rpm. The Agrobacterium cells are pelleted by centrifuging at 3000 rpm for 15 minutes and then resuspended in MS (Murashige and Skoog) medium containing 30 g/l sucrose, pH 5.9 to an OD (600 nM)=0.6. This suspension is dispensed in 25 ml aliquots into petri dishes.
Once rooted, plantlets are transferred from agar and potted into 50% peat, 50% John Innes Soil No. 3 with slow-release fertilizer in 3 inch round pots and left regularly watered to establish for 8-12d in the glass house. Glass house conditions are about 24-27° C. day; 18-21° C. night and approximately a 14h photoperiod. […]
Three transgenic populations of about forty tobacco plants and comprising, a glucosyl transferase gene encoding either zmBX8 (SEQ ID NO 2) or zmBX9 (SEQ ID NO 1) were thus produced. […] Plants were assessed for damage and scored at 7 and 14 days after treatment (DAT). […]

[4] = test system: transgenic tobacco plants expressing SEQ ID NO1 or SEQ ID NO 17; experiment: LC/MS of foliar extracts after herbicide treatment; settings: 24 and 48 h after treatment, 80% acetonitrile/water extract
Procedure: (§3) The expected glucosides of herbicides V and VI corresponding to those seen in vitro are also similarly produced in transgenic […] plants expressing Zea mays BX9 or expressing mutant derivatives of Zea mays BX9. For example, LC/MS analysis of extracts of leaves obtained by maceration and extraction into 80% acetonitrile/water 24 and 48 h after treatment with herbicides V and VI indicate that the same beta-glucosides that are produced by the enzymes in vitro are produced in planta.

[5] = test system: non-transgenic w/t Zea mays seedlings; experiment: LC/MS of foliar extracts after herbicide treatment; settings: 24 and 48 h after treatment, 80% acetonitrile/water extract
Procedure: as §3

[6] = test system: transgenic tobacco plants expressing zmBX8 (SEQ ID No 2); experiment: Glass house spray test on tobacco, percent damage; settings: 30 g/ha
Procedure: as §2, with “transformation. […]” for “transformation.”
Three transgenic populations of about forty tobacco plants and comprising, a glucosyl transferase gene encoding either zmBX8 (SEQ ID NO 2) or zmBX9 (SEQ ID NO 1) were thus produced. […] Plants were assessed for damage and scored at 7 and 14 days after treatment (DAT).

[7] = 1 kg/ha, events 7937, 7940, 7952, 8039, 8071, 8106 expressing SEQ ID NOs 16 and 17, data not shown

| SMILES | tolerance compared with w/t and SEQ ID NO: 1 plants [1] | tolerance compared with w/t and SEQ ID NO: 1 plants [2] | percent damage ([3]; 500 gai/ha V) | glucoside found in foliar extract [4] | glucoside found in foliar extract [5] | tolerance [1, 7] | tolerance [6] | tolerance [2, 7] | tolerance ([3]; 30 g/ha, several transgenic lines) | percent damage ([3]; 500 gai/ha VI) | tolerance ([3]; high rates, best two events) |
| --- | --- | --- | --- | --- | --- | --- | --- | --- | --- | --- | --- |
| CN1CC(O)N(c2cc(C(F)(F)F)ccn2)C1=O (stereo not shown) [Compound V] | much superior tolerance | much superior tolerance | 100% and 80% |  |  |  |  |  |  |  |  |
| CON1C(=O)N(c2cc(C(F)(F)F)ccn2)C(O)[C@@H]1C (stereo partly shown) [Compound VI] | much superior tolerance | much superior tolerance |  | mainly the S-beta stereoisomer O-glucoside product of VI | the S-beta stereoisomer O-glucoside product of VI | substantially fully tolerant | little or no tolerance | substantially fully tolerant | demonstrate tolerance | 95% and 90% and 100% and 60% and 70% and 75% and 80% | only partial tolerance |
